Measurements from the supplement of paper PMC11208160.

assay: recombinant UMI read abundance after kanamycin selection (control-corrected) (log10(CPM+1)); higher = more efficient recombination; extreme values may be limits of the assay; sequences stand for … in AGTGCAGAGAAAATCGGCCAGTTTTCTCTGCCTGCAGTCCGCATGCCGTGGGACCCCTTGGGTTCTAACCTGTTGCCTAGATTTATGCAGCGGACTGCCTTTCTCCCAAAGTGATAAACCGG…AGGTTGGTTTCACT; site = the 11-nt donor
In short: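 The measure is log10(CPM+1) for recombinant UMIs. These were PCR-amplified across the donor–target junction and sequenced after Escherichia coli carrying a donor and donor-binding-loop pair library and a target plasmid with T7-inducible IS621 bridge recombinase was plated on IPTG (0.07 mM) plus kanamycin or unselected. CPM were averaged over two replicates and scaled by control-derived factors.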
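Also: IS621 bridge recombinase in Escherichia coli cells against a fixed T5 target plasmid.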

Going from “ACGCGTTCATGGACCGGTTTTCCCGGTAATCCGTATTTGCG (site ACGCGTTCTCG)” to “AGGAAGACATGGACCGGTTTTCCCGGTAATCCGTATTTGCA (site AGAAAGACTTA)”, the “recombinant UMI read abundance (log10)” value falls from 1.8 to 0.795.

Compared with “CAAGCGACATGGACCGGTTTTCCCGGTAATCCGTATTTGTG (site CAAGCGTCTCA)”, “GGGTATCCATGGACCGGTTTTCCCGGTAATCCGTATTTGTT (site CGGAATCCTAA)” is lower in “recombinant UMI read abundance (log10)” value: 0.756 for the first, 0 for the second.

First: GCCAAGCCATGGACCGGTTTTCCCGGTAATCCGTATTTGGG (site GCTAAGCCTCC)
Second: CTCTGCCCATGGACCGGTTTTCCCGGTAATCCGTATTTGAT (site CTCTGCCCTAT)
The “recombinant UMI read abundance (log10)” value of the first is lower: 0 for the first, 0.509 for the second.

Compared with “AGCTTAGCATGGACCGGTTTTCCCGGTAATCCGTATTTGGG (site AGCTCAGCTCC)”, “TAGAATCCATGGACCGGTTTTCCCGGTAATCCGTATTTGCA (site TAGAATCCTTG)” is higher in “recombinant UMI read abundance (log10)” value: 0.0187 for the first, 1.16 for the second.

Going from “GTTGTATCATGGACCGGTTTTCCCGGTAATCCGTATTTGAC (site GTTGTATCTGT)” to “ATAGCCTCATGGACCGGTTTTCCCGGTAATCCGTATTTGCG (site ATAGCCTCTCG)”, the “recombinant UMI read abundance (log10)” value rises from 2.18 to 2.52.

Going from “ACTAGTGCATGGACCGGTTTTCCCGGTAATCCGTATTTGGT (site ACAAGTGCTAC)” to “AGCCGTCCATGGACCGGTTTTCCCGGTAATCCGTATTTGAT (site AGCCGTCCTAT)”, the “recombinant UMI read abundance (log10)” value rises from 0.762 to 1.09.

“CTTCCGACATGGACCGGTTTTCCCGGTAATCCGTATTTGGA (site CTTCCGACTTC)” and “ACTAGTGCATGGACCGGTTTTCCCGGTAATCCGTATTTGGT (site ACTAGTGCTTC)” are within 0.2 log units of each other in “recombinant UMI read abundance (log10)” value: 0.0169 for the first, 0.0165 for the second.

“ACTAGTGCATGGACCGGTTTTCCCGGTAATCCGTATTTGGT (site ACTAGTCCTAC)” and “TAATGACCATGGACCGGTTTTCCCGGTAATCCGTATTTGCC (site TAATGACCTGG)” are within 0.2 log units of each other in “recombinant UMI read abundance (log10)” value: 0.0182 for the first, 0 for the second.

Going from “ATGGAGACATGGACCGGTTTTCCCGGTAATCCGTATTTGGT (site ATTGAGACTAC)” to “GTTTGCCCATGGACCGGTTTTCCCGGTAATCCGTATTTGAT (site GGTTGCCCTAT)”, the “recombinant UMI read abundance (log10)” value falls from 0.681 to 0.018.

First: GAACTCACATGGACCGGTTTTCCCGGTAATCCGTATTTGAT (site GACCTCACTAT)
Second: GTAGGTACATGGACCGGTTTTCCCGGTAATCCGTATTTGAC (site GTAGGTACTAT)
The “recombinant UMI read abundance (log10)” value of the first is lower: 0.375 for the first, 2.23 for the second.

First: GATAATCCATGGACCGGTTTTCCCGGTAATCCGTATTTGCT (site GATCATCCTAG)
Second: TAGCTAGCATGGACCGGTTTTCCCGGTAATCCGTATTTGAA (site TAGCTATCTTT)
The “recombinant UMI read abundance (log10)” value of the first is lower: 0 for the first, 0.588 for the second.

Going from “ACAGTTGCATGGACCGGTTTTCCCGGTAATCCGTATTTGCA (site ACAGTATCTTG)” to “GTTCCAGCATGGACCGGTTTTCCCGGTAATCCGTATTTGCA (site GTTCCAGCTTG)”, the “recombinant UMI read abundance (log10)” value rises from 0 to 1.64.

Going from “ATGGTTCCATGGACCGGTTTTCCCGGTAATCCGTATTTGTC (site ATGGTTCCTGA)” to “GTGGAGACATGGACCGGTTTTCCCGGTAATCCGTATTTGTG (site GTGGAGGCTCA)”, the “recombinant UMI read abundance (log10)” value falls from 1.67 to 1.4.

Compared with “ACGCCCTCATGGACCGGTTTTCCCGGTAATCCGTATTTGGG (site ACGCCCTCTCC)”, “CACTCTTCATGGACCGGTTTTCCCGGTAATCCGTATTTGCC (site CACTCCTCTGG)” is higher in “recombinant UMI read abundance (log10)” value: 0.119 for the first, 2.13 for the second.

“TTGGAATCATGGACCGGTTTTCCCGGTAATCCGTATTTGCG (site TGGGAATCTCG)” and “TACTTCACATGGACCGGTTTTCCCGGTAATCCGTATTTGCT (site TACTTTACTAG)” are within 0.2 log units of each other in “recombinant UMI read abundance (log10)” value: 0.00536 for the first, 0 for the second.

Going from “CGGACATCATGGACCGGTTTTCCCGGTAATCCGTATTTGCT (site AGGACATCTAG)” to “CGGGAGTCATGGACCGGTTTTCCCGGTAATCCGTATTTGTC (site CGGGAGTCTGC)”, the “recombinant UMI read abundance (log10)” value rises from 0.695 to 1.37.

Going from “GCCACCGCATGGACCGGTTTTCCCGGTAATCCGTATTTGCG (site GCCACCGCTCG)” to “GTATGGACATGGACCGGTTTTCCCGGTAATCCGTATTTGTA (site GTATGGACTTA)”, the “recombinant UMI read abundance (log10)” value rises from 0.939 to 1.9.

“CTCCCTACATGGACCGGTTTTCCCGGTAATCCGTATTTGAG (site CTCACTACTCT)” and “CGTAATACATGGACCGGTTTTCCCGGTAATCCGTATTTGGC (site CCTAATACTGC)” are within 0.2 log units of each other in “recombinant UMI read abundance (log10)” value: 0.0117 for the first, 0 for the second.

Going from “GCTACTCCATGGACCGGTTTTCCCGGTAATCCGTATTTGCC (site GCTACTTCTGG)” to “GTAGGTACATGGACCGGTTTTCCCGGTAATCCGTATTTGAC (site GTAGGTACTGT)”, the “recombinant UMI read abundance (log10)” value rises from 0.0501 to 2.01.

“CCCAAAGCATGGACCGGTTTTCCCGGTAATCCGTATTTGAT (site CCTAAAGCTAT)” and “CCTAAATCATGGACCGGTTTTCCCGGTAATCCGTATTTGAT (site CCTAAAGCTAT)” are within 0.2 log units of each other in “recombinant UMI read abundance (log10)” value: 0.00406 for the first, 0 for the second.

Compared with “CTCTCGACATGGACCGGTTTTCCCGGTAATCCGTATTTGAC (site CTCTCGACTGT)”, “CCTCAAGCATGGACCGGTTTTCCCGGTAATCCGTATTTGAT (site CCTCAAGCTAT)” is lower in “recombinant UMI read abundance (log10)” value: 1.34 for the first, 0.0413 for the second.

Compared with “CCTAAAGCATGGACCGGTTTTCCCGGTAATCCGTATTTGAC (site CCTAAAGCTTT)”, “GTTCGCGCATGGACCGGTTTTCCCGGTAATCCGTATTTGCA (site GTTCGCGCTTG)” is higher in “recombinant UMI read abundance (log10)” value: 0.0124 for the first, 2.03 for the second.

Compared with “CGTTTGGCATGGACCGGTTTTCCCGGTAATCCGTATTTGCA (site CGTTTGGCTTG)”, “TCGGCCCCATGGACCGGTTTTCCCGGTAATCCGTATTTGTT (site TCGGCCCCTAA)” is lower in “recombinant UMI read abundance (log10)” value: 0.562 for the first, 0.0126 for the second.

Going from “CTAGCGCCATGGACCGGTTTTCCCGGTAATCCGTATTTGTG (site CGAGCGCCTCA)” to “CGGTGAGCATGGACCGGTTTTCCCGGTAATCCGTATTTGGA (site CGGTGAGCTTC)”, the “recombinant UMI read abundance (log10)” value rises from 0.00935 to 1.56.

“TGTCAGCCATGGACCGGTTTTCCCGGTAATCCGTATTTGGC (site TGTCAGCCTGC)” and “CTCATATCATGGACCGGTTTTCCCGGTAATCCGTATTTGAC (site CTAGTATCTGT)” are within 0.2 log units of each other in “recombinant UMI read abundance (log10)” value: 0.0152 for the first, 0 for the second.
